Laboratory results as given in US8415342B2, “Besifloxacin ophthalmic composition for the treatment or control of infection” (Bausch & Lomb Incorporated, priority 2008, dated 2013).
Values after ≈ are worked out from the molar mass of the structure shown. Where two headings read alike, the source gives them in different places.

Legend:
Assay type in all cases: cell-based
Staphylococcus warneri = assay: MIC, CLSI broth microdilution, clinical isolates; settings: Staphylococcus warneri (N = 50)
[1] = system: Staphylococcus lugdunensis; assay: MIC, CLSI broth microdilution, clinical isolates; settings: Staphylococcus lugdunensis (N = 15)
[2] = system: Staphylococcus haemolyticus; assay: MIC, CLSI broth microdilution, clinical isolates; settings: Staphylococcus haemolyticus (N = 101)
S. aureus = assay: MIC of clinical trial isolates, Studies 373, 433, 434; settings: Staphylococcus aureus
S. epidermidis [3] = assay: MIC and MBC:MIC ratio, recent ocular isolates; settings: S. epidermidis (N = 15), recent ocular isolates
Text: The success of in vivo antimicrobial action depends to a large extent on the host's defense mechanisms, which ultimately sequester and kill the microorganisms that have been reduced by the bacteriostatic/bactericidal action of the antibacterial agent. Thus, it is also of interest to profile the bactericidal activity of antimicrobial agents. The assessment of in vitro bactericidal activity can be accomplished in multiple ways, for example, the time-kill method or the determination of the minimum bactericidal concentration (MBC). […] Bactericidal agents are characterized by low MBC:MIC ratios.

[4] = system: Lancefield group C, F, G streptococci; assay: MIC, CLSI broth microdilution, clinical isolates; settings: G streptococci (N = 50)
Moraxella catarrhalis = assay: MIC, CLSI broth microdilution, clinical isolates; settings: Moraxella catarrhalis (N = 101)
S. epidermidis [5] = assay: MIC of clinical trial isolates, Studies 373, 433, 434; settings: Staphylococcus epidermidis, read-out: MIC90
[6] = system: Staphylococcus epidermidis; assay: MIC, CLSI broth microdilution, clinical isolates; settings: for MIC50: Staphylococcus epidermidis
Staphylococcus hominis = assay: MIC, CLSI broth microdilution, clinical isolates; settings: Staphylococcus hominis (N = 50)
Citrobacter koseri = assay: MIC, CLSI broth microdilution, clinical isolates; settings: Citrobacter koseri (N = 100)
Streptococcus agalactiae = assay: MIC, CLSI broth microdilution, clinical isolates; settings: Streptococcus agalactiae (N = 100)
Legionella pneumophila = assay: microbe, parasite or virus in culture
Streptococcus pyogenes = assay: MIC, CLSI broth microdilution, clinical isolates; settings: Streptococcus pyogenes (N = 101)
[7] = system: Staphylococcus saprophyticus; assay: MIC, CLSI broth microdilution, clinical isolates; settings: Staphylococcus saprophyticus (N = 101)
Morganella morganii = assay: MIC, CLSI broth microdilution, clinical isolates; settings: Morganella morganii (N = 51)
Klebsiella oxytoca = assay: MIC, CLSI broth microdilution, clinical isolates; settings: Klebsiella oxytoca (N = 50)
Staphylococcus aureus = assay: MIC, CLSI broth microdilution, clinical isolates; settings: for MIC50 / MIC90: Staphylococcus aureus
Haemophilus influenzae = assay: MIC, CLSI broth microdilution, clinical isolates; settings: for MIC50 / MIC90: Haemophilus influenzae
Streptococcus pneumoniae = assay: MIC, CLSI broth microdilution, clinical isolates
Viridans streptococci = assay: MIC, CLSI broth microdilution, clinical isolates; settings: Viridans streptococci (N = 156)
[8] = Staphylococcus epidermidis (CNS, N = 6)
[9] = Staphylococcus epidermidis (CS, N = 9)
[10] = Staphylococcus epidermidis (MSSE, N = 6)
[11] = Staphylococcus epidermidis (all phenotypes, N = 15)
[12] = Staphylococcus aureus (CNS, N = 16)
[13] = Staphylococcus aureus (CS, N = 14)
[14] = Staphylococcus aureus (all phenotypes, N = 30)
[15] = MRSA, Staphylococcus aureus (MRSA, N = 11)
[16] = MSSA, Staphylococcus aureus (MSSA, N = 19)
[17] = Haemophilus influenzae (all phenotypes, N = 40)
[18] = Haemophilus influenzae (bla negative, N = 24)
[19] = Haemophilus influenzae (bla positive, N = 16)
[20] = Streptococcus pneumoniae (PSSP, N = 31)

CC[C@H]1OC(=O)[C@H](C)[C@@H](O[C@H]2C[C@@](C)(OC)[C@@H](O)[C@H](C)O2)[C@H](C)[C@@H](O[C@@H]2O[C@H](C)C[C@H](N(C)C)[C@H]2O)[C@](C)(O)C[C@@H](C)CN(C)[C@H](C)[C@@H](O)[C@]1(C)O [Azithromycin]
% S (Staphylococcus warneri): 34.0% | MIC50 (Staphylococcus warneri): > 8 µg/mL | MIC90 (Staphylococcus warneri): > 8 µg/mL | % S [1]: 46.7% | MIC50 [1]: > 8 µg/mL | MIC90 [1]: > 8 µg/mL | % S [2]: 26.7% | MIC50 [2]: > 8 µg/mL | MIC90 [2]: > 8 µg/mL | MIC90 (S. aureus; MRSA, S. aureus MRSA-CR, N 17, read-out: MIC90): > 8 µg/mL | MIC90 (S. aureus; MRSA, S. aureus MRSA-CS, N 9, read-out: MIC90 (due to limited isolates, highest MIC value is given)): > 8 µg/mL | MIC90 (S. aureus; MSSA, S. aureus MSSA-CR, N 17, read-out: MIC90): > 8 µg/mL | MIC90 (S. aureus; MSSA, S. aureus MSSA-CS, N 144, read-out: MIC90): > 8 µg/mL | % S (susceptible isolates, CLSI) (S. epidermidis [3]): 26.7% | MIC50 (S. epidermidis [3]; Staphylococcus epidermidis): > 8 µg/mL | MIC90 (S. epidermidis [3]; Staphylococcus epidermidis): > 8 µg/mL | % S [4]: 74.0% | MIC50 ([4]; read-out: MIC50): 0.06 µg/mL (≈ 0.0801 µM) | MIC90 ([4]; read-out: MIC90): > 8 µg/mL | % S (Moraxella catarrhalis): 100.0% | MIC50 (Moraxella catarrhalis): 0.03 µg/mL (≈ 0.0401 µM) | MIC90 (Moraxella catarrhalis): 0.03 µg/mL (≈ 0.0401 µM) | MIC Range (Moraxella catarrhalis): 0.015 to 0.06 µg/mL | MIC90 (S. epidermidis [5]; MRSE, S. epidermidis MRSE-CR, N 24): > 8 µg/mL | MIC90 (S. epidermidis [5]; MRSE, S. epidermidis MRSE-CS, N 27): > 8 µg/mL | MIC90 (S. epidermidis [5]; S. epidermidis MSSE-CR, N 10): > 8 µg/mL | MIC90 (S. epidermidis [5]; S. epidermidis MSSE-CS, N 50): > 8 µg/mL | % S [6, 8]: 16.7% | % S [6, 9]: 33.3% | % S ([6]; Staphylococcus epidermidis (MRSE, N = 9)): 0.0% | % S [6, 10]: 66.7% | % S [6, 11]: 26.7% | MIC90 [6, 11]: > 8 µg/mL | MIC50 ([6]; MRSE, Staphylococcus epidermidis (MRSE, N = 9)): > 8 µg/mL | MIC50 [6, 8]: > 8 µg/mL | MIC50 [6, 9]: > 8 µg/mL | MIC50 [6, 10]: 0.5 µg/mL (≈ 0.668 µM) | MIC50 [6, 11]: > 8 µg/mL | % S (Staphylococcus hominis): 16.0% | MIC50 (Staphylococcus hominis): > 8 µg/mL | MIC90 (Staphylococcus hominis): > 8 µg/mL | MIC50 (Citrobacter koseri): 8 µg/mL (≈ 10.7 µM) | MIC90 (Citrobacter koseri): > 8 µg/mL | % S (Streptococcus agalactiae): 73.0% | MIC50 (Streptococcus agalactiae; read-out: MIC50): 0.06 µg/mL (≈ 0.0801 µM) | MIC90 (Streptococcus agalactiae; read-out: MIC90): > 8 µg/mL | MIC50 (Legionella pneumophila; Legionella pneumophila): 0.12 µg/mL (≈ 0.16 µM) | MIC90 (Legionella pneumophila; Legionella pneumophila): 1 µg/mL (≈ 1.34 µM) | MIC Range (Legionella pneumophila; Legionella pneumophila (N = 50)): 0.03 to 1 µg/mL | % S (Streptococcus pyogenes): 85.1% | MIC50 (Streptococcus pyogenes; read-out: MIC50): 0.06 µg/mL (≈ 0.0801 µM) | MIC90 (Streptococcus pyogenes; read-out: MIC90): 8 µg/mL (≈ 10.7 µM) | % S [7]: 54.5% | MIC50 [7]: 1 µg/mL (≈ 1.34 µM) | MIC90 [7]: > 8 µg/mL | MIC50 (Morganella morganii): > 8 µg/mL | MIC90 (Morganella morganii): > 8 µg/mL | MIC50 (Klebsiella oxytoca): > 8 µg/mL | MIC90 (Klebsiella oxytoca): > 8 µg/mL | % S (Staphylococcus aureus; [12]): 43.8% | % S (Staphylococcus aureus; [13]): 64.3% | % S (Staphylococcus aureus; Staphylococcus aureus (MRSA, N = 11)): 9.1% | % S (Staphylococcus aureus; Staphylococcus aureus (MSSA, N = 19)): 78.9% | % S (Staphylococcus aureus; [14]): 53.3% | MIC50 (Staphylococcus aureus; [15]): > 8 µg/mL | MIC90 (Staphylococcus aureus; [15]): > 8 µg/mL | MIC50 (Staphylococcus aureus; [16]): 1 µg/mL (≈ 1.34 µM) | MIC90 (Staphylococcus aureus; [16]): > 8 µg/mL | MIC50 (Staphylococcus aureus; [12]): > 8 µg/mL | MIC90 (Staphylococcus aureus; [12]): > 8 µg/mL | MIC50 (Staphylococcus aureus; [13]): 1 µg/mL (≈ 1.34 µM) | MIC90 (Staphylococcus aureus; [13]): > 8 µg/mL | MIC50 (Staphylococcus aureus; [14]): 1 µg/mL (≈ 1.34 µM) | MIC90 (Staphylococcus aureus; [14]): > 8 µg/mL | % S (Haemophilus influenzae; [17]): 100.0% | MIC Range (Haemophilus influenzae; [17]): ≦0.004-2 μg/mL | % S (Haemophilus influenzae; [18]): 100.0% | MIC Range (Haemophilus influenzae; [18]): ≦0.004-2 μg/mL | % S (Haemophilus influenzae; [19]): 100.0% | MIC Range (Haemophilus influenzae; [19]): 0.06 to 1 µg/mL | MIC50 (Haemophilus influenzae; [17]): 0.5 µg/mL (≈ 0.668 µM) | MIC90 (Haemophilus influenzae; [17]): 1 µg/mL (≈ 1.34 µM) | MIC50 (Haemophilus influenzae; [18]): 0.5 µg/mL (≈ 0.668 µM) | MIC90 (Haemophilus influenzae; [18]): 2 µg/mL (≈ 2.67 µM) | MIC50 (Haemophilus influenzae; [19]): 0.5 µg/mL (≈ 0.668 µM) | MIC90 (Haemophilus influenzae; [19]): 1 µg/mL (≈ 1.34 µM) | % S (Streptococcus pneumoniae; Streptococcus pneumoniae (PISP, N = 2)): 0.0% | % S (Streptococcus pneumoniae; Streptococcus pneumoniae (PRSP, N = 2)): 50.0% | % S (Streptococcus pneumoniae; [20]): 67.7% | MIC50 (Streptococcus pneumoniae; [20]): 0.06 µg/mL (≈ 0.0801 µM) | MIC90 (Streptococcus pneumoniae; [20]): >8 µg/mL | % S (Streptococcus pneumoniae; Streptococcus pneumoniae (all phenotypes, N = 35)): 62.9% | MIC50 (Streptococcus pneumoniae; Streptococcus pneumoniae (all phenotypes, N = 35), read-out: MIC50): 0.06 µg/mL (≈ 0.0801 µM) | MIC90 (Streptococcus pneumoniae; Streptococcus pneumoniae (all phenotypes, N = 35), read-out: MIC90): > 8 µg/mL | % S (Viridans streptococci): 53.2% | MIC50 (Viridans streptococci; read-out: MIC50): 0.06 µg/mL (≈ 0.0801 µM) | MIC90 (Viridans streptococci; read-out: MIC90): > 8 µg/mL
